Read-outs that look alike come from different tables or passages of the source.
How the values were obtained:
[1] = target: T1, p53 Y220C mutant protein (amino acid residues 94-293) (Homo sapiens, UniProt P04637, Y220C); assay: Surface Plasmon Resonance (SPR) assay, Kd_kinetic; type: binding
T1 construct: p53 Y220C mutant protein (amino acid residues 94-293)
How it was run: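 Surface plasmon resonance is run at 16 or 20 °C in 50 mM Tris pH 7.5 containing 100 mM NaCl, 1 mM DTT, 0.01% Brij35, 0.05% Tween-20 and 1% DMSO. Association and dissociation data are fitted to a 1:1 model.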

NUGC3 p53 Y220C = assay: Cell Proliferation Assay (CellTiter-Glo, CTG), NUGC3 p53 Y220C; type: cell-based; conditions: Homo sapiens, NUGC-3, 120 h, CellTiter-Glo, 5 days
How it was run: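 Tet-One inducible p53 Y220C or R273H constructs were stably introduced into NCI-H1299 by lentiviral transduction; NUGC3 was used as is. Cells (250-500 per well) were exposed to compound for 5 days, then CellTiter-Glo was added for 10 min at room temperature and IC50 was calculated from luminescence.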

H1299 p53 R273H = assay: Cell Proliferation Assay (CellTiter-Glo, CTG), H1299 p53 R273H (NClH1299-inducible p53 R273H); type: cell-based; conditions: Homo sapiens, NCI-H1299, 120 h, CellTiter-Glo, 5 days
How it was run: (§1)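 Cells seeded at 250-500 per well and exposed to compound for 5 days. Viability read by CellTiter-Glo luminescence after 10 min at room temperature; IC50 calculated. H1299 lines carry Tet-One inducible p53 mutant constructs introduced by lentiviral transduction.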

p53 Y220C = p53 Y220C (Homo sapiens, UniProt P04637, Y220C); assay: Luciferase Reporter Assay (Luc), p53 response element, NClH1299 cells with inducible p53 Y220C; type: cell-based
How it was run: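 Luminescence readout (One-Glo, 5 min shaking at RT, read at once) after 6 h compound exposure; cells pre-induced 24 h with 0.5 ug/mL doxycycline, 5,000/well.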

H1299 p53 Y220C = assay: Cell Proliferation Assay (CellTiter-Glo, CTG), H1299 p53 Y220C (NClH1299-inducible p53 Y220C); type: cell-based; conditions: Homo sapiens, NCI-H1299, 120 h, CellTiter-Glo, 5 days
How it was run: as §1

[2] = target: T1, p53 Y220C mutant protein (amino acid residues 94-293); assay: Thermal Shift Assay (TSA), dTM; type: binding; conditions: for ΔTm at 100 µM: 100 uM compound; for ΔTm at 10 µM: 10 uM compound
How it was run: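 Recombinant p53 Y220C core (residues 94-293) at 5 μM was incubated with 10 μM or 100 μM compound for 3 hours at 20 °C in 20 mM HEPES pH7.4, 100 mM NaCl, 0.01% Pluronic F-127, 1% DMSO with 400-fold diluted Sypro Orange. Melting was followed from 30 °C to 50 °C at 0.03 °C/second, and TM came from a Boltzmann two-state fit.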

[3] = SPR, kinetic KD, p53 Y220C, read-out: SPR P53 Y220C KD kinetic
[4] = luciferase reporter, NClH1299 inducible p53 Y220C, 6 hour, 10 uM tool compound as positive control
[5] = luciferase reporter, NClH1299 inducible p53 Y220C, 6 hour, read-out: Luc P53 Y220C AC50
[6] = thermal shift, read-out: TSA P53 Y220C dTM (100 uM)
[7] = SPR, p53 Y220C, read-out: SPR P53 Y220C KD kinetic
[8] = NClH1299-inducible p53 R273H cells
[9] = AC50, luciferase reporter, NClH1299 inducible p53 Y220C, 6 hour, read-out: Luc P53 Y220C AC50
[10] = Emax, luciferase reporter, NClH1299 inducible p53 Y220C, 6 hour
[11] = NClH1299-inducible p53 Y220C cells
[12] = p53 Y220C, read-out: TSA P53 Y220C dTM
[13] = thermal shift, read-out: TSA P53 Y220C dTM (10 uM)

| Compound | Kd [1, 3] [nM] | IC50 (NUGC3 p53 Y220C; NUGC3 p53 Y220C) [nM] | IC50 (H1299 p53 R273H; H1299 p53 R273H) [nM] | Emax (p53 Y220C; [4]) [%] | AC50 (p53 Y220C; [5]) [nM] | IC50 (H1299 p53 Y220C; H1299 p53 Y220C) [nM] | ΔTm at 100 µM [2, 6] [°C] | Kd [1, 7] [nM] | IC50 (NUGC3 p53 Y220C; NUGC3 cells) [nM] | IC50 (H1299 p53 R273H; [8]) [nM] | AC50 (p53 Y220C; [9]) [nM] | Emax (p53 Y220C; [10]) [%] | IC50 (H1299 p53 Y220C; [11]) [nM] | ΔTm at 10 µM [2, 12] [°C] | ΔTm at 10 µM [2, 13] [°C] | ΔTm at 100 µM [2, 12] [°C] | Kd [1] [nM] | AC50 (p53 Y220C) [nM] | Kd ([1]; read-out: SPR P53 Y220C KD kinetic) [nM] |
| --- | --- | --- | --- | --- | --- | --- | --- | --- | --- | --- | --- | --- | --- | --- | --- | --- | --- | --- | --- |
| COc1cc(S(C)(=O)=O)ccc1NCC#Cc1nc2c(NC3CCN(C4CC4)CC3)cccn2c1CC(F)(F)F [Example 7, 1-cyclopropyl-N-(2-{3-[(4-methanesulfonyl-2-methoxyphenyl)amino]prop-1-yn-1-yl}-3-(2,2,2-trifluoroethyl)imidazo[1,2-a]pyridin-8-yl)piperidin-4-amine] | 10 to 100 | 1500 to 3000 | 5000 to 8000 | < 70 | > 3000 | 1500 to 3000 | 5 to 10 | – | – | – | – | – | – | – | – | – | – | – | – |
| COc1cc(C(=O)NC(C)C)ccc1NCC#Cc1nc2c(N[C@@H]3CCN(C)C[C@@H]3F)cccn2c1SC(F)(F)F [Example 89, 4-{[3-(8-{[(3S,4R)-3-fluoro-1-methylpiperidin-4-yl]amino}-3-[(trifluoromethyl)sulfanyl]imidazo[1,2-a]pyridin-2-yl)prop-2-yn-1-yl]amino}-N-isopropyl-3-methoxybenzamide] | < 10 | < 750 | 8000 to 10000 | 80 to 90 | < 750 | < 750 | ≥ 10 | – | – | – | – | – | – | – | – | – | – | – | – |
| CNC(=O)c1ccc(C)c(NCC#Cc2cc3c(N[C@@H]4CCN(C)C[C@@H]4F)nccn3c2SC(F)(F)F)c1 [Example 294] | – | – | – | – | – | – | – | < 10 | < 750 | ≥ 10000 | < 750 | > 90 | < 750 | ≥ 10 | – | – | – | – | – |
| CNC(=O)c1ccc(OC)c(NCC#Cc2nc3c(N[C@@H]4CCN(C)C[C@@H]4F)cccn3c2SC(F)F)c1 [Example 167] | < 10 | < 750 | < 5000 | 80 to 90 | < 750 | < 750 | ≥ 10 | – | – | – | – | – | – | – | ≥ 10 | – | – | – | – |
| CNC(=O)c1ccc(NCC#Cc2nn3c(N[C@@H]4CCN(C)C[C@@H]4F)nccc3c2SC(F)F)c(OC)c1 [Example 215] | < 10 | < 750 | ≥ 10000 | > 90 | < 750 | < 750 | – | – | – | – | – | – | – | – | ≥ 10 | – | – | – | – |
| CNC(=O)c1ccc(NCC#Cc2nc3c(N[C@@H]4CCN(C)C[C@@H]4F)cccn3c2SC(F)(F)F)c(OC(F)F)c1 [Example 105, 3-(difluoromethoxy)-4-{[3-(8-{[(3S,4R)-3-fluoro-1-methylpiperidin-4-yl]amino}-3-[(trifluoromethyl)sulfanyl]imidazo[1,2-a]pyridin-2-yl)prop-2-yn-1-yl]amino}-N-methylbenzamide] | < 10 | < 750 | 8000 to 10000 | 80 to 90 | < 750 | < 750 | ≥ 10 | – | – | – | – | – | – | – | ≥ 10 | – | – | – | – |
| CNC(=O)c1ccc(OC)c(NCC#Cc2nc3c(N[C@H]4C[C@@H]5CC[C@@H](N5)[C@H]4F)cccn3c2SC(F)(F)F)c1 [Example 203] | < 10 | < 750 | 5000 to 8000 | 70 to 80 | < 750 | < 750 | ≥ 10 | – | – | – | – | – | – | – | ≥ 10 | – | – | – | – |
| CNC(=O)c1ccc(NCC#Cc2nc3c(N[C@H]4C[C@@H]5CC[C@H]([C@H]4F)N5C)cccn3c2SC(F)(F)F)c(OC)c1 [Example 130] | < 10 | < 750 | 5000 to 8000 | 70 to 80 | < 750 | < 750 | ≥ 10 | – | – | – | – | – | – | – | ≥ 10 | – | – | – | – |
| CNC(=O)c1ccc(NCC#Cc2nc3c(N[C@@H]4C[C@@H]5COC[C@H]([C@@H]4F)N5C)cccn3c2SC(F)(F)F)c(OC)c1 [Example 283] | – | – | – | – | – | – | – | < 10 | < 750 | ≥ 10000 | < 750 | 80 to 90 | < 750 | ≥ 10 | – | – | – | – | – |
| COC(=O)N1CCC(Nc2cccn3c(CC(F)(F)F)c(C#CCNc4ccc(S(C)(=O)=O)cc4OC)nc23)CC1 [Example 116, methyl 4-[(2-{3-[(4-methanesulfonyl-2-methoxyphenyl)amino]prop-1-yn-1-yl}-3-(2,2,2-trifluoroethyl)imidazo[1,2-a]pyridin-8-yl)amino]piperidine-1-carboxylate] | 100 to 1000 | > 3000 | ≥ 10000 | < 70 | > 3000 | > 3000 | 5 to 10 | – | – | – | – | – | – | – | – | – | – | – | – |
| CNC(=O)c1ccc(NCC#Cc2nc3c(NC4COC4)cccn3c2SC(F)(F)F)c(OC)c1 [Example 225] | – | – | – | – | – | – | – | 10 to 100 | 1500 to 3000 | ≥ 10000 | 750 to 1500 | 80 to 90 | 750 to 1500 | 1 to 5 | – | 5 to 10 | – | – | – |
| COc1cc(S(=O)(=O)C(C)C)ccc1NCC#Cc1nc2c(N[C@@H]3CCN(C)C[C@@H]3F)cccn2c1SC(F)(F)F [Example 78, (3S,4R)-3-fluoro-N-[2-(3-{[2-methoxy-4-(propane-2-sulfonyl)phenyl]amino}prop-1-yn-1-yl)-3-[(trifluoromethyl)sulfanyl]imidazo[1,2-a]pyridin-8-yl]-1-methylpiperidin-4-amine] | < 10 | < 750 | ≥ 10000 | 80 to 90 | < 750 | < 750 | ≥ 10 | – | – | – | – | – | – | – | – | – | – | – | – |
| CNC(=O)c1cnc(OC)c(NCC#Cc2cc3c(N[C@@H]4CCN(C)C[C@@H]4F)cccn3c2SC(F)(F)F)c1 [Example 256] | – | – | – | – | – | – | – | < 10 | < 750 | 5000 to 8000 | < 750 | > 90 | < 750 | ≥ 10 | – | – | – | – | – |
| COc1cc(S(C)(=O)=O)ccc1NCC#Cc1nc2c(N[C@@H]3CCNC[C@@H]3F)cccn2c1SC(F)(F)F [Example 83] | < 10 | < 750 | 5000 to 8000 | 70 to 80 | < 750 | < 750 | ≥ 10 | – | – | – | – | – | – | – | ≥ 10 | – | – | – | – |
| CNC(=O)c1ccc(OC)c(NCC#Cc2nc3c(N[C@@H]4CCN(C)C[C@@H]4F)nccn3c2SC(F)(F)F)c1 [Example 212] | < 10 | < 750 | ≥ 10000 | 80 to 90 | < 750 | < 750 | – | – | – | – | – | – | – | – | ≥ 10 | – | – | – | – |
| COc1ccc(C(=O)NC(C)C)cc1NCC#Cc1nc2c(N[C@@H]3CCN(C)C[C@@H]3F)cccn2c1SC(F)(F)F [Example 145] | < 10 | < 750 | ≥ 10000 | 80 to 90 | < 750 | < 750 | ≥ 10 | – | – | – | – | – | – | – | ≥ 10 | – | – | – | – |
| CNC(=O)c1ccc(OC)c(NCC#Cc2nc3c(NC4CC5(C4)CN(CC(F)F)C5)cccn3c2SC(F)(F)F)c1 [Example 204] | – | 750 to 1500 | ≥ 10000 | > 90 | – | 750 to 1500 | ≥ 10 | – | – | – | – | – | – | – | 5 to 10 | – | < 10 | 750 to 1500 | – |
| CNC(=O)c1ccc(NCC#Cc2nc3c(N[C@@H]4CCC(=O)N(C)C4)cccn3c2SC(F)(F)F)c(OC)c1 [Example 188] | 10 to 100 | 750 to 1500 | ≥ 10000 | 80 to 90 | 750 to 1500 | 750 to 1500 | ≥ 10 | – | – | – | – | – | – | – | 5 to 10 | – | – | – | – |
| CNC(=O)c1ccc(OC)c(NCC#Cc2nc3c(N[C@@H]4CCNC[C@@H]4F)cccn3c2SC(F)(F)F)n1 [Example 217] | – | < 750 | 5000 to 8000 | 70 to 80 | < 750 | < 750 | ≥ 10 | – | – | – | – | – | – | – | ≥ 10 | – | – | – | < 10 |

— patent publication US20260374766A1, “METHODS FOR TREATING CANCER” (Antares Therapeutics, Inc., priority 2022, published 2026)
